Measurements: PubChem BioAssay (NCI)
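1) Cells in 96-well plates. 2) Compound, 48 h, 5 concentrations. 3) Linear interpolation between surrounding doses. 4) Unreached endpoint = highest concentration. At the GI50, growth is halved. TGI: total growth inhibition.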

Columns and labels:
Test in all cases: NCI anticancer screen, dose series, 48 h
[1] = system: RPMI-8226 leukemia
[2] = system: UO-31 renal
[3] = system: KM12 colon
[4] = system: SN12C renal
[5] = system: BT-549 breast
[6] = system: SK-OV-3 ovarian
[7] = system: DU-145 prostate
[8] = system: UACC-62 melanoma
[9] = system: K-562 leukemia
[10] = system: M14 melanoma
[11] = system: SF-268 CNS
[12] = system: SK-MEL-2 melanoma
[13] = system: IGROV1 ovarian
[14] = system: EKVX NSCLC
[15] = system: 786-0 renal
[16] = system: SF-539 CNS
[17] = system: CCRF-CEM leukemia
[18] = system: COLO 205 colon
[19] = system: LOX IMVI melanoma
[20] = system: SK-MEL-28 melanoma
[21] = system: A549 NSCLC
[22] = system: OVCAR-4 ovarian
[23] = system: MCF7 breast
[24] = system: A498 renal
[25] = system: NCI/ADR-RES ovarian
[26] = system: SR leukemia
[27] = system: CAKI-1 renal
[28] = system: MALME-3M melanoma
[29] = system: SNB-19 CNS
[30] = system: OVCAR-5 ovarian
[31] = system: ACHN renal
[32] = system: MOLT-4 leukemia
[33] = system: NCI-H23 lung
[34] = system: HCT-15 colon
[35] = system: RXF 393 renal
[36] = system: OVCAR-3 ovarian
[37] = system: U251 CNS
[38] = system: HCC-2998 colon
[39] = system: HT29 colon
[40] = system: HOP-92 NSCLC
[41] = system: SK-MEL-5 melanoma
[42] = system: SNB-75 CNS
[43] = system: PC-3 prostate
[44] = system: NCI-H226 lung
[45] = system: T-47D breast
[46] = system: MDA-MB-231 breast
[47] = system: HCT-116 colon
[48] = system: HS 578T breast
[49] = system: SF-295 CNS
[50] = system: NCI-H460 lung
[51] = system: HOP-62 NSCLC
[52] = system: UACC-257 melanoma
[53] = system: HL-60(TB) leukemia
[54] = system: SW-620 colon
[55] = system: OVCAR-8 ovarian
[56] = system: NCI-H522 lung
[57] = system: MDA-MB-435
[58] = system: TK-10 renal

Molecule Nc1nc2ccc(-c3nc4ccc5[nH]ncc5c4c4c3CCC4)cc2s1 has a GI50 [1] of 472 nM, a TGI [1] of 10.5 µM and a GI50 [2] of 741 nM. It also gave a TGI [2] of 3.58 µM, a GI50 [3] of 205 nM and a TGI [3] of 9.01 µM. For the same molecule, the GI50 [4] was 383 nM, the TGI [4] was 8.79 µM and the GI50 [5] was 365 nM. The TGI [5] was 10.2 µM, the GI50 [6] was 473 nM and the TGI [6] was 2520 nM. The GI50 [7] was 787 nM, the TGI [7] was 5.62 µM and the GI50 [8] was 149 nM. The TGI [8] was 630 nM, the GI50 [9] was 115 nM and the TGI [9] was 33.2 µM. The GI50 [10] was 172 nM, the TGI [10] was 8.86 µM and the GI50 [11] was 478 nM. The TGI [11] was 20.2 µM, the GI50 [12] was 567 nM and the TGI [12] was 8.08 µM. It also gave a GI50 [13] of 288 nM, a TGI [13] of 8.66 µM and a GI50 [14] of 916 nM. For the same molecule, the TGI [14] was 8.05 µM, the GI50 [15] was 343 nM and the TGI [15] was 7.79 µM. It also gave a GI50 [16] of 190 nM, a TGI [16] of 4.15 µM and a GI50 [17] of 225 nM. The TGI [17] was 50 µM, the GI50 [18] was 306 nM and the TGI [18] was 7.14 µM. It also gave a GI50 [19] of 281 nM, a TGI [19] of 8.9 µM and a GI50 [20] of 638 nM. For the same molecule, the TGI [20] was 7.89 µM, the GI50 [21] was 440 nM and the TGI [21] was 23.9 µM. For the same molecule, the GI50 [22] was 835 nM, the TGI [22] was 6.25 µM and the GI50 [23] was 165 nM. It also gave a TGI [23] of 7.36 µM, a GI50 [24] of 108 nM and a TGI [24] of 624 nM. The GI50 [25] was 302 nM, the TGI [25] was 18.8 µM and the GI50 [26] was 155 nM. For the same molecule, the TGI [26] was 22.4 µM, the GI50 [27] was 315 nM and the TGI [27] was 5.51 µM. It also gave a GI50 [28] of 202 nM, a TGI [28] of 1630 nM and a GI50 [29] of 318 nM. The TGI [29] was 11.4 µM, the GI50 [30] was 2640 nM and the TGI [30] was 11.9 µM. The GI50 [31] was 321 nM, the TGI [31] was 6.58 µM and the GI50 [32] was 294 nM. For the same molecule, the TGI [32] was 10.7 µM, the GI50 [33] was 546 nM and the TGI [33] was 8.25 µM. For the same molecule, the GI50 [34] was 193 nM, the TGI [34] was 7.66 µM and the GI50 [35] was 238 nM. The TGI [35] was 1770 nM, the GI50 [36] was 187 nM and the TGI [36] was 10.8 µM. It also gave a GI50 [37] of 241 nM, a TGI [37] of 12.7 µM and a GI50 [38] of 1470 nM. For the same molecule, the TGI [38] was 9.11 µM, the GI50 [39] was 191 nM and the TGI [39] was 19.8 µM. The GI50 [40] was 660 nM, the TGI [40] was 6.87 µM and the GI50 [41] was 238 nM. For the same molecule, the TGI [41] was 1680 nM, the GI50 [42] was 115 nM and the TGI [42] was 550 nM. It also gave a GI50 [43] of 308 nM, a TGI [43] of 14 µM and a GI50 [44] of 1100 nM. The TGI [44] was 10.1 µM, the GI50 [45] was 408 nM and the TGI [45] was 15.3 µM. The GI50 [46] was 511 nM, the TGI [46] was 11.5 µM and the GI50 [47] was 244 nM. It also gave a TGI [47] of 6.68 µM, a GI50 [48] of 189 nM and a TGI [48] of 3.13 µM. For the same molecule, the GI50 [49] was 234 nM, the TGI [49] was 7.95 µM and the GI50 [50] was 208 nM. It also gave a TGI [50] of 5.12 µM, a GI50 [51] of 415 nM and a TGI [51] of 13.6 µM. The GI50 [52] was 731 nM, the TGI [52] was 5.58 µM and the GI50 [53] was 168 nM. It also gave a TGI [53] of 7.93 µM, a GI50 [54] of 186 nM and a TGI [54] of 7.05 µM. For the same molecule, the GI50 [55] was 978 nM, the TGI [55] was 20.7 µM and the GI50 [56] was 253 nM. It also gave a TGI [56] of 2520 nM, a GI50 [57] of 67.3 nM and a TGI [57] of 259 nM. It also gave a GI50 [58] of 1110 nM and a TGI [58] of 9.73 µM.
